Measured values from patent US20230085307A1, “PYRIDAZINONE COMPOUND AND HERBICIDE” (NISSAN CHEMICAL CORPORATION, priority 2019, published 2023).

Assays:
[1] = test system: Italian ryegrass; experiment: Test Example 5: herbicidal effect by foliage application, plastic box (Table 20, symbol K); assay type: in vivo, Italian ryegrass (Lolium multiflorum); details: foliage application, 320 g/ha, three weeks after application
Summary of the method: (§1)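 Post-emergence foliar test in sterilized diluvial soil. Compound applied as water-diluted emulsion at a predetermined rate to 14-day-old plants; evaluation at three weeks.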

[2] = test system: barnyard grass; experiment: Test Example 5: herbicidal effect by foliage application, plastic box (Table 20, symbol H); assay type: in vivo, barnyard grass (Echinochloa crus-galli); details: foliage application, 320 g/ha, three weeks after application
Summary of the method: as §1

[3] = test system: wild oat; experiment: Test Example 5: herbicidal effect by foliage application, plastic box (Table 20, symbol I); assay type: in vivo, wild oat (Avena fatua); details: foliage application, 320 g/ha, three weeks after application
Summary of the method: as §1

[4] = test system: Japanese bulrush; experiment: Test Example 1: herbicidal activity, application before weed generation under submerged conditions (Table 16, symbol B); assay type: in vivo, Japanese bulrush (Schoenoplectus juncoides); details: amount of applied herbicide 320 g/ha
Summary of the method: (§2)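 Alluvial soil was flooded to 4 cm depth, weed seeds were sown mixed and 2.5-leaf rice seedlings were transplanted. On sowing day, the compound's emulsion, diluted in water to a set dose, was applied to the water surface. Plants grew at 25–30 °C and were scored 0–5 after three weeks.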

[5] = test system: oval-leafed pondweed; experiment: Test Example 1: herbicidal activity, application before weed generation under submerged conditions (Table 16, symbol C); assay type: in vivo, oval-leafed pondweed (Monochoria vaginalis); details: amount of applied herbicide 320 g/ha
Summary of the method: as §2

[6] = test system: southern crabgrass; experiment: Test Example 5: herbicidal effect by foliage application, plastic box (Table 20, symbol F); assay type: in vivo, southern crabgrass (Digitaria ciliaris); details: foliage application, 320 g/ha, three weeks after application
Summary of the method: as §1

[7] = test system: barnyard grass; experiment: Test Example 3: herbicidal effect by foliage application, Wagner pot (Table 18, symbol H); assay type: in vivo, barnyard grass (Echinochloa crus-galli)
Summary of the method: (§3)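 Plants were sown in alluvial soil held under 0.1–0.5 cm standing water and grown 14 days in a greenhouse at 25–30 °C. An emulsifiable formulation, water-diluted to the set dose, was then sprayed onto the foliage, and effects were scored three weeks later using previously defined criteria.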

[8] = test system: persian speedwell; experiment: Test Example 4: herbicidal effect by soil treatment (Table 19, symbol R); assay type: in vivo, Persian speedwell (Veronica persica); details: amount of applied herbicide 320 g/ha
Summary of the method: (§4)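 Emulsion of test compound, water-diluted to predetermined amount, sprayed on soil after sowing (seed depth ~1.5 cm, sterilized diluvial soil). Greenhouse, 25–30° C. Effect graded at three weeks post-spray.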

[9] = test system: barnyard grass; experiment: Test Example 4: herbicidal effect by soil treatment (Table 19, symbol H); assay type: in vivo, barnyard grass (Echinochloa crus-galli); details: amount of applied herbicide 320 g/ha
Summary of the method: as §4

[10] = test system: persian speedwell; experiment: Test Example 5: herbicidal effect by foliage application, plastic box (Table 20, symbol R); assay type: in vivo, Persian speedwell (Veronica persica); details: foliage application, 320 g/ha, three weeks after application
Summary of the method: as §1

[11] = test system: windgrass; experiment: Test Example 4: herbicidal effect by soil treatment (Table 19, symbol L); assay type: in vivo, windgrass (Apera spica-venti); details: amount of applied herbicide 320 g/ha
Summary of the method: as §4

[12] = test system: blackgrass; experiment: Test Example 4: herbicidal effect by soil treatment (Table 19, symbol J); assay type: in vivo, blackgrass (Alopecurus myosuroides); details: amount of applied herbicide 320 g/ha
Summary of the method: as §4

[13] = test system: green foxtail; experiment: Test Example 5: herbicidal effect by foliage application, plastic box (Table 20, symbol G); assay type: in vivo, green foxtail (Setaria viridis); details: foliage application, 320 g/ha, three weeks after application
Summary of the method: as §1

[14] = test system: redroot pigweed; experiment: Test Example 4: herbicidal effect by soil treatment (Table 19, symbol N); assay type: in vivo, redroot pigweed (Amaranthus retroflexus); details: amount of applied herbicide 320 g/ha
Summary of the method: as §4

[15] = test system: lambsquarters; experiment: Test Example 4: herbicidal effect by soil treatment (Table 19, symbol O); assay type: in vivo, lambsquarters (Chenopodium album); details: amount of applied herbicide 320 g/ha
Summary of the method: as §4

[16] = test system: velvetleaf; experiment: Test Example 5: herbicidal effect by foliage application, plastic box (Table 20, symbol M); assay type: in vivo, velvetleaf (Abutilon theophrasti); details: foliage application, 320 g/ha, three weeks after application
Summary of the method: as §1

[17] = test system: Chinese sprangletop; experiment: Test Example 3: herbicidal effect by foliage application, Wagner pot (Table 18, symbol D); assay type: in vivo, chinese sprangletop (Leptochloa chinensis)
Summary of the method: as §3

[18] = test system: blackgrass; experiment: Test Example 5: herbicidal effect by foliage application, plastic box (Table 20, symbol J); assay type: in vivo, blackgrass (Alopecurus myosuroides); details: foliage application, 320 g/ha, three weeks after application
Summary of the method: as §1

[19] = test system: wild oat; experiment: Test Example 4: herbicidal effect by soil treatment (Table 19, symbol I); assay type: in vivo, wild oat (Avena fatua); details: amount of applied herbicide 320 g/ha
Summary of the method: as §4

[20] = test system: rice flat sedge; experiment: Test Example 3: herbicidal effect by foliage application, Wagner pot (Table 18, symbol E); assay type: in vivo, rice flat sedge (Cyperus iria)
Summary of the method: as §3

[21] = test system: southern crabgrass; experiment: Test Example 4: herbicidal effect by soil treatment (Table 19, symbol F); assay type: in vivo, southern crabgrass (Digitaria ciliaris); details: amount of applied herbicide 320 g/ha
Summary of the method: as §4

[22] = test system: lambsquarters; experiment: Test Example 5: herbicidal effect by foliage application, plastic box (Table 20, symbol O); assay type: in vivo, lambsquarters (Chenopodium album); details: foliage application, 320 g/ha, three weeks after application
Summary of the method: as §1

[23] = test system: chickweed; experiment: Test Example 4: herbicidal effect by soil treatment (Table 19, symbol P); assay type: in vivo, common chickweed (Stellaria media); details: amount of applied herbicide 320 g/ha
Summary of the method: as §4

[24] = test system: redroot pigweed; experiment: Test Example 5: herbicidal effect by foliage application, plastic box (Table 20, symbol N); assay type: in vivo, redroot pigweed (Amaranthus retroflexus); details: foliage application, 320 g/ha, three weeks after application
Summary of the method: as §1

[25] = test system: chickweed; experiment: Test Example 5: herbicidal effect by foliage application, plastic box (Table 20, symbol P); assay type: in vivo, common chickweed (Stellaria media); details: foliage application, 320 g/ha, three weeks after application
Summary of the method: as §1

[26] = test system: Italian ryegrass; experiment: Test Example 4: herbicidal effect by soil treatment (Table 19, symbol K); assay type: in vivo, Italian ryegrass (Lolium multiflorum); details: amount of applied herbicide 320 g/ha
Summary of the method: as §4

[27] = test system: green foxtail; experiment: Test Example 4: herbicidal effect by soil treatment (Table 19, symbol G); assay type: in vivo, green foxtail (Setaria viridis); details: amount of applied herbicide 320 g/ha
Summary of the method: as §4

[28] = test system: windgrass; experiment: Test Example 5: herbicidal effect by foliage application, plastic box (Table 20, symbol L); assay type: in vivo, windgrass (Apera spica-venti); details: foliage application, 320 g/ha, three weeks after application
Summary of the method: as §1

[29] = test system: velvetleaf; experiment: Test Example 4: herbicidal effect by soil treatment (Table 19, symbol M); assay type: in vivo, velvetleaf (Abutilon theophrasti); details: amount of applied herbicide 320 g/ha
Summary of the method: as §4

[30] = test system: late watergrass; experiment: Test Example 1: herbicidal activity, application before weed generation under submerged conditions (Table 16, symbol A); assay type: in vivo, late watergrass (Echinochloa oryzicola); details: amount of applied herbicide 320 g/ha
Summary of the method: as §2

[31] = amount of applied herbicide 320 g/ha

SMILES | K: Italian ryegrass, herbicidal effect grade [1] | H: barnyard grass, herbicidal effect grade [2] | I: wild oat, herbicidal effect grade [3] | Herbicidal effect, B: Japanese bulrush [4] | Herbicidal effect, C: oval-leafed pondweed [5] | F: southern crabgrass, herbicidal effect grade [6] | R: persian speedwell, herbicidal effect grade [10] | G: green foxtail, herbicidal effect grade [13] | M: velvetleaf, herbicidal effect grade [16] | J: blackgrass, herbicidal effect grade [18] | O: lambsquarters, herbicidal effect grade [22] | N: redroot pigweed, herbicidal effect grade [24] | P: chickweed, herbicidal effect grade [25] | L: windgrass, herbicidal effect grade [28] | Herbicidal effect, A: late watergrass [30] | further results
CCCC(=O)Oc1c(CC)nn(C)c(=O)c1-c1c(-c2ccc(F)cc2)sc2ccc(F)cc12 [2-407] | 3 (Herbicidal rate of 40% or more and less than 70%) | 3 (Herbicidal rate of 40% or more and less than 70%) | 0 (Herbicidal rate of 5% or less (almost no effect)) | 0 (Herbicidal rate of 5% or less (almost no effect)) | 0 (Herbicidal rate of 5% or less (almost no effect)) | 0 (Herbicidal rate of 5% or less (almost no effect)) | 5 (Herbicidal rate of 90% or more (almost completely withered)) | 5 (Herbicidal rate of 90% or more (almost completely withered)) | 5 (Herbicidal rate of 90% or more (almost completely withered)) | 0 (Herbicidal rate of 5% or less (almost no effect)) | 3 (Herbicidal rate of 40% or more and less than 70%) | 5 (Herbicidal rate of 90% or more (almost completely withered)) | 5 (Herbicidal rate of 90% or more (almost completely withered)) | 0 (Herbicidal rate of 5% or less (almost no effect)) | 3 (Herbicidal rate of 40% or more and less than 70%) | herbicidal effect on H: barnyard grass [7, 31]: 5 (Herbicidal rate of 90% or more (almost completely withered)); herbicidal effect, R: persian speedwell [8]: 0 (Herbicidal rate of 5% or less (almost no effect)); herbicidal effect, H: barnyard grass [9]: 0 (Herbicidal rate of 5% or less (almost no effect)); herbicidal effect, L: windgrass [11]: 0 (Herbicidal rate of 5% or less (almost no effect)); herbicidal effect, J: blackgrass [12]: 0 (Herbicidal rate of 5% or less (almost no effect)); herbicidal effect, N: redroot pigweed [14]: 3 (Herbicidal rate of 40% or more and less than 70%); herbicidal effect, O: lambsquarters [15]: 1 (Herbicidal rate of 5% or more and less than 20%); herbicidal effect on D: Chinese sprangletop [17, 31]: 4 (Herbicidal rate of 70% or more and less than 90%); herbicidal effect, I: wild oat [19]: 0 (Herbicidal rate of 5% or less (almost no effect)); herbicidal effect on E: rice flat sedge [20, 31]: 4 (Herbicidal rate of 70% or more and less than 90%); herbicidal effect, F: southern crabgrass [21]: 0 (Herbicidal rate of 5% or less (almost no effect)); herbicidal effect, P: chickweed [23]: 1 (Herbicidal rate of 5% or more and less than 20%); herbicidal effect, K: Italian ryegrass [26]: 0 (Herbicidal rate of 5% or less (almost no effect)); herbicidal effect, G: green foxtail [27]: 1 (Herbicidal rate of 5% or more and less than 20%); herbicidal effect, M: velvetleaf [29]: 0 (Herbicidal rate of 5% or less (almost no effect))
Cc1nn(C)c(=O)c(-c2c(-c3ccc(OC(C)C)cc3)sc3cc(Cl)ccc23)c1O [3-041] | 0 (Herbicidal rate of 5% or less (almost no effect)) | 0 (Herbicidal rate of 5% or less (almost no effect)) | 0 (Herbicidal rate of 5% or less (almost no effect)) | 0 (Herbicidal rate of 5% or less (almost no effect)) | 0 (Herbicidal rate of 5% or less (almost no effect)) | 0 (Herbicidal rate of 5% or less (almost no effect)) | 5 (Herbicidal rate of 90% or more (almost completely withered)) | 0 (Herbicidal rate of 5% or less (almost no effect)) | 0 (Herbicidal rate of 5% or less (almost no effect)) | 0 (Herbicidal rate of 5% or less (almost no effect)) | 1 (Herbicidal rate of 5% or more and less than 20%) | 2 (Herbicidal rate of 20% or more and less than 40%) | 3 (Herbicidal rate of 40% or more and less than 70%) | 0 (Herbicidal rate of 5% or less (almost no effect)) | 2 (Herbicidal rate of 20% or more and less than 40%) | herbicidal effect on barnyard grass (H) ([7]; 320 g/ha): 2 (Herbicidal rate of 20% or more and less than 40%); R: persian speedwell, herbicidal effect grade [8]: 2 (Herbicidal rate of 20% or more and less than 40%); H: barnyard grass, herbicidal effect grade [9]: 0 (Herbicidal rate of 5% or less (almost no effect)); L: windgrass, herbicidal effect grade [11]: 0 (Herbicidal rate of 5% or less (almost no effect)); J: blackgrass, herbicidal effect grade [12]: 0 (Herbicidal rate of 5% or less (almost no effect)); N: redroot pigweed, herbicidal effect grade [14]: 0 (Herbicidal rate of 5% or less (almost no effect)); O: lambsquarters, herbicidal effect grade [15]: 0 (Herbicidal rate of 5% or less (almost no effect)); herbicidal effect on Chinese sprangletop (D) ([17]; 320 g/ha): 0 (Herbicidal rate of 5% or less (almost no effect)); I: wild oat, herbicidal effect grade [19]: 0 (Herbicidal rate of 5% or less (almost no effect)); herbicidal effect on rice flat sedge (E) ([20]; 320 g/ha): 1 (Herbicidal rate of 5% or more and less than 20%); F: southern crabgrass, herbicidal effect grade [21]: 0 (Herbicidal rate of 5% or less (almost no effect)); P: chickweed, herbicidal effect grade [23]: 1 (Herbicidal rate of 5% or more and less than 20%); K: Italian ryegrass, herbicidal effect grade [26]: 0 (Herbicidal rate of 5% or less (almost no effect)); G: green foxtail, herbicidal effect grade [27]: 0 (Herbicidal rate of 5% or less (almost no effect)); M: velvetleaf, herbicidal effect grade [29]: 0 (Herbicidal rate of 5% or less (almost no effect))
